Reference: PubChem BioAssay (NCI)
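Where inhibition never reached the appropriate level, the endpoint shown equals the highest concentration tested. Otherwise, values were interpolated linearly from a five-concentration, 48-hour dose response in 96-well plates. At the TGI there is no net growth.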

How the values were obtained:
Assay in all cases: growth of human tumour cells (NCI), 48 h
SK-OV-3 ovarian = test system: SK-OV-3 ovarian
RXF 393 renal = test system: RXF 393 renal
HT29 colon = test system: HT29 colon
NCI-H522 lung = test system: NCI-H522 lung
IGROV1 ovarian = test system: IGROV1 ovarian
A498 renal = test system: A498 renal
NCI/ADR-RES ovarian = test system: NCI/ADR-RES ovarian
LOX IMVI melanoma = test system: LOX IMVI melanoma
HCC-2998 colon = test system: HCC-2998 colon
NCI-H460 lung = test system: NCI-H460 lung
SR leukemia = test system: SR leukemia
DU-145 prostate = test system: DU-145 prostate
UACC-62 melanoma = test system: UACC-62 melanoma
NCI-H23 lung = test system: NCI-H23 lung
M14 melanoma = test system: M14 melanoma
OVCAR-8 ovarian = test system: OVCAR-8 ovarian
SNB-19 CNS = test system: SNB-19 CNS
CAKI-1 renal = test system: CAKI-1 renal
U251 CNS = test system: U251 CNS
MDA-MB-435 = test system: MDA-MB-435
MCF7 breast = test system: MCF7 breast
SNB-75 CNS = test system: SNB-75 CNS
OVCAR-5 ovarian = test system: OVCAR-5 ovarian
ACHN renal = test system: ACHN renal
UO-31 renal = test system: UO-31 renal
MDA-N = test system: MDA-N
SN12C renal = test system: SN12C renal
HOP-92 NSCLC = test system: HOP-92 NSCLC
T-47D breast = test system: T-47D breast
MDA-MB-231 breast = test system: MDA-MB-231 breast
KM12 colon = test system: KM12 colon
TK-10 renal = test system: TK-10 renal
CCRF-CEM leukemia = test system: CCRF-CEM leukemia
COLO 205 colon = test system: COLO 205 colon
BT-549 breast = test system: BT-549 breast
HCT-15 colon = test system: HCT-15 colon
MOLT-4 leukemia = test system: MOLT-4 leukemia
SF-539 CNS = test system: SF-539 CNS
HCT-116 colon = test system: HCT-116 colon
SK-MEL-2 melanoma = test system: SK-MEL-2 melanoma
SK-MEL-28 melanoma = test system: SK-MEL-28 melanoma
786-0 renal = test system: 786-0 renal
A549 NSCLC = test system: A549 NSCLC
SK-MEL-5 melanoma = test system: SK-MEL-5 melanoma
SW-620 colon = test system: SW-620 colon
RPMI-8226 leukemia = test system: RPMI-8226 leukemia
EKVX NSCLC = test system: EKVX NSCLC
HL-60(TB) leukemia = test system: HL-60(TB) leukemia
PC-3 prostate = test system: PC-3 prostate
K-562 leukemia = test system: K-562 leukemia
HOP-62 NSCLC = test system: HOP-62 NSCLC
SF-295 CNS = test system: SF-295 CNS
HS 578T breast = test system: HS 578T breast
UACC-257 melanoma = test system: UACC-257 melanoma
OVCAR-3 ovarian = test system: OVCAR-3 ovarian
NCI-H226 lung = test system: NCI-H226 lung
MALME-3M melanoma = test system: MALME-3M melanoma
OVCAR-4 ovarian = test system: OVCAR-4 ovarian
SF-268 CNS = test system: SF-268 CNS

Measured: TGI

O=C(NC1(c2cc3ccccc3s2)CCCCC1)C1CCC1
83.7 µM: HS 578T breast
not listed: SF-268 CNS
> 100 µM: all other assays above

CCCCCCCCCCCCCCCCCc1cccc(OCOCCOC)c1C(=O)O
42.1 µM: A549 NSCLC
43.2 µM: MCF7 breast
42.6 µM: HS 578T breast
32.3 µM: NCI-H226 lung
36 µM: HCC-2998 colon
36.6 µM: UACC-257 melanoma
> 77.5 µM: CCRF-CEM leukemia
35.9 µM: M14 melanoma
50 µM: SR leukemia
31.6 µM: BT-549 breast
61.8 µM: LOX IMVI melanoma
35.5 µM: SF-295 CNS
38.7 µM: EKVX NSCLC
34.8 µM: OVCAR-4 ovarian
22.2 µM: MALME-3M melanoma
34.5 µM: SF-268 CNS
30 µM: NCI-H522 lung
35 µM: OVCAR-5 ovarian
38.8 µM: MDA-N
44.1 µM: MOLT-4 leukemia
28.6 µM: NCI/ADR-RES ovarian
33.2 µM: DU-145 prostate
32.4 µM: UACC-62 melanoma
41 µM: NCI-H460 lung
28 µM: SK-OV-3 ovarian
32.2 µM: A498 renal
40.9 µM: MDA-MB-435
39.2 µM: SK-MEL-2 melanoma
33.5 µM: IGROV1 ovarian
38.9 µM: HOP-62 NSCLC
34.4 µM: PC-3 prostate
40.6 µM: SNB-19 CNS
41.2 µM: HCT-15 colon
37.4 µM: MDA-MB-231 breast
31.7 µM: OVCAR-8 ovarian | UO-31 renal
50.8 µM: HL-60(TB) leukemia
41.6 µM: U251 CNS
35.8 µM: HOP-92 NSCLC
31.1 µM: SNB-75 CNS
39.7 µM: COLO 205 colon
34.1 µM: KM12 colon
44.3 µM: SW-620 colon
37.7 µM: RXF 393 renal
35.7 µM: HT29 colon
36.9 µM: OVCAR-3 ovarian
38.2 µM: SK-MEL-28 melanoma
39.1 µM: HCT-116 colon | SK-MEL-5 melanoma
46.6 µM: SN12C renal
> 72.7 µM: RPMI-8226 leukemia
30.1 µM: NCI-H23 lung | SF-539 CNS
34.3 µM: TK-10 renal
35.1 µM: CAKI-1 renal
> 83 µM: K-562 leukemia
35.2 µM: all other assays above

CC(=O)C(=[N+]=[N-])C(=O)N1CCOC1=O
not listed: NCI-H522 lung | HOP-92 NSCLC
> 10 µM: all other assays above

CCCCNC(=O)c1cc2c(cc1Cl)Sc1nccn1S2(=O)=O
34.3 µM: CAKI-1 renal
63.7 µM: SK-MEL-5 melanoma
not listed: NCI-H226 lung
> 100 µM: all other assays above
